Assay results published in US20240067693A1, “POLYPEPTIDES AND USES THEREOF” (MEDIMMUNE LIMITED, priority 2020, published 2024).
Numbered stars: 1 amine (or outer) side, 2 acyl side, 3 side chain; on linkers, the order of the positions; unused ones are H or OH. Bridge positions count the residues as written; N and C are the ends. Square brackets hold non-standard residues; d marks the D form. Side chains are listed from the residue outwards. Ends that are not written are not given here. Peptide text beside a SMILES is read from it. * marks the point of attachment. C18 diacid = O=C(O)CCCCCCCCCCCCCCCCC(=O)*; γGlu = O=C(O)[C@H](CCC(=O)[*:2])N[*:1]; Aib = CC(C)(N)C(=O)O

Experiments:
[1] = target: T1, human amylin receptor (calcitonin receptor co-expressed with receptor activity modifying protein, RAMP3) (hAMYR3) (Homo sapiens, UniProt O60896+P30988); experiment: cAMP production in 1321N1 cells with stable recombinant expression of human amylin receptor (hAMYR3); format: cell-based
T1 construct: expressed in transfected cells
T1 sequence (P30988 25-474): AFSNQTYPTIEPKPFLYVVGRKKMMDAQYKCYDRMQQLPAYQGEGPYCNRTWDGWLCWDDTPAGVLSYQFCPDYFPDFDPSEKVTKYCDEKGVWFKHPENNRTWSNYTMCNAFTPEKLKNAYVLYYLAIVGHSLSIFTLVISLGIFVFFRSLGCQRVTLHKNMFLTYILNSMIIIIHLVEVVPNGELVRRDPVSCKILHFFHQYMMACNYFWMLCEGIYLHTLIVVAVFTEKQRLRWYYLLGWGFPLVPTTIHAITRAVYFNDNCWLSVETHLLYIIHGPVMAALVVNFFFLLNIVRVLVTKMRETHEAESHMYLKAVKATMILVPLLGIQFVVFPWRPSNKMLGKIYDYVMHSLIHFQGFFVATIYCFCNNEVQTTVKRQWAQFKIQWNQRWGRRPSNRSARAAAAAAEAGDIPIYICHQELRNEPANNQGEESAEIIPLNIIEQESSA
T1 sequence (O60896 24-148 partner): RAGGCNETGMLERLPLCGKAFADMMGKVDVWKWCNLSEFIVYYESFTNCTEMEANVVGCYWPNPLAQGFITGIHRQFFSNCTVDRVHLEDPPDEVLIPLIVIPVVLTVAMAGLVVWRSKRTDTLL
Outline: (§1)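 EC50 values come from 4-parameter logistic fits of HTRF cAMP signal, normalised to maximal calcitonin or amylin effect. Peptides were tested in duplicate for 30 min at RT in IBMX-containing (0.5 mM) BSA/HEPES buffer pH 7.4 on stable 1321N1 (human CTR, AMYR3) or HEK (rat CTR, AMYR3) lines.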

[2] = target: T2, rat amylin receptor (calcitonin receptor co-expressed with receptor activity modifying protein, RAMP3) (Rat AMYR3) (Rattus norvegicus, UniProt P32214+Q9JJ73); experiment: cAMP production in HEK cells with stable recombinant expression of rat amylin receptor (Rat AMYR3); format: cell-based; details: assay buffer with 0.1% BSA
T2 construct: expressed in transfected cells
T2 sequence (P32214 25-516): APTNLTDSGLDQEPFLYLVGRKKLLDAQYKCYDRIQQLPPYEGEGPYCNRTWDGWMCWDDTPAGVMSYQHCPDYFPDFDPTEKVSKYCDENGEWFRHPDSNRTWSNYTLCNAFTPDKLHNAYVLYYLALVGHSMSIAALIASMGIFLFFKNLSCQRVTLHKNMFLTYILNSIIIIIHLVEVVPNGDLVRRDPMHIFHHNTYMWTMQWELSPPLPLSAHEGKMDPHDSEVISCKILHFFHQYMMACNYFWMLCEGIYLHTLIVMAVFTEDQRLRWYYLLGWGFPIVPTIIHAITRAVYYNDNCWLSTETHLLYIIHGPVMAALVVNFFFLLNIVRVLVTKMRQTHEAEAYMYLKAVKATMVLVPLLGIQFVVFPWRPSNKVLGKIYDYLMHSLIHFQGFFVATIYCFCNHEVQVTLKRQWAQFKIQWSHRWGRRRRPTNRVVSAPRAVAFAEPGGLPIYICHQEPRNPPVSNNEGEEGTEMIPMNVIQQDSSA
T2 sequence (Q9JJ73 23-147 partner): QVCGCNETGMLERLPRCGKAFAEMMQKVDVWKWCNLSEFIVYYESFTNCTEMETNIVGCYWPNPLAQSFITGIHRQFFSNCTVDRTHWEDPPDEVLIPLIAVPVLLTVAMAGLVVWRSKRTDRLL
Outline: as §1

[3] = target: T3, human calcitonin receptor (hCTR) (Homo sapiens, UniProt P30988); experiment: cAMP production in 1321N1 cells with stable recombinant expression of human calcitonin receptor (hCTR); format: cell-based; details: cAMP, 1321N1 cells, assay buffer with 0.1% BSA; read-out: EC50 (pM) hCTR
T3 construct: expressed in transfected cells
T3 sequence (P30988 25-474): T1 sequence (P30988 25-474)
Outline: as §1

[4] = test system: lean rats; experiment: Rat acute food intake study; format: in vivo; details: lean male Sprague Dawley rats, 20 nmol/kg subcutaneously
Outline: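 Male Sprague Dawley rats (n=7/group), fasted 6 h, received 20 nmol/kg test compound or 60 nmol/kg pramlintide subcutaneously 30 min before food return at dark onset. Food intake recorded automatically in home cages over 3 days, binned hourly and analysed as cumulative dark-period intake; body weight taken daily.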

[5] = target: T4, rat calcitonin receptor (rat CTR) (Rattus norvegicus, UniProt P32214); experiment: cAMP production in HEK cells with stable recombinant expression of rat calcitonin receptor (rat CTR); format: cell-based; details: assay buffer with 0.1% BSA
T4 construct: expressed in transfected cells
T4 sequence (P32214 25-516): T2 sequence (P32214 25-516)
Outline: as §1

[6] = Pharmacokinetic determination via IV and SC administration in Sprague Dawley rats; details: male, rat, plasma, 20 nmol/kg
[7] = Roth et al. Br J Pharmacol 2012; cited from earlier work

Ratio (selectivity hAMYR vs hCTR, ratio of EC50 values at the two receptors) ([1]; EC50 hCTR / EC50 hAMYR3) | EC50 ([1]; cAMP, 1321N1 cells, assay buffer with 0.1% BSA, read-out: EC50 (pM) hAMYR3) | EC50 [2] | EC50 [3] | EC50 [5] | half-life ([6]; iv) | half-life ([6]; sc) | Compound | Cummulative food intake (% vehicle treated intake) At 12 h ([4]; at 12 h) | Cummulative food intake (% vehicle treated intake) At 24 h ([4]; at 24 h) | Cummulative food intake (% vehicle treated intake) At 48 h ([4]; at 48 h) | terminal half-life in rats [7]
9.2 | 130 pM | 5.6 pM | 1200 pM | 522 pM | 6.9 h | 9.3 h | CC[C@H](C)[C@H](NC(=O)[C@@H]1CCCN1C(=O)CNC(=O)[C@H](Cc1ccccc1)NC(=O)[C@H](CC(N)=O)NC(=O)[C@H](CC(N)=O)NC(=O)[C@H](CO)NC(=O)[C@H](CO)NC(=O)[C@H](Cc1c[nH]cn1)NC(=O)C(C)(C)NC(=O)[C@H](CC(C)C)NC(=O)[C@H](Cc1ccccc1)NC(=O)[C@H](CC(N)=O)NC(=O)[C@H](C)NC(=O)[C@H](CC(C)C)NC(=O)[C@H](CCCNC(=N)N)NC(=O)[C@H](CCC(N)=O)NC(=O)[C@@H](NC(=O)[C@H](C)NC(=O)[C@@H]1CSSC[C@H](NC(=O)[C@@H](N)CCCCNC(=O)CC[C@H](NC(=O)CCCCCCCCCCCCCCCCC(=O)O)C(=O)O)C(=O)N[C@@H](CC(N)=O)C(=O)N[C@@H]([C@@H](C)O)C(=O)N[C@@H](C)C(=O)N[C@@H]([C@@H](C)O)C(=O)N1)[C@@H](C)O)C(=O)N[C@@H](CC(C)C)C(=O)N1CCC[C@H]1C(=O)N1CCC[C@H]1C(=O)N[C@H](C(=O)N[C@@H](CC(N)=O)C(=O)N[C@H](C(=O)NCC(=O)N[C@@H](CO)C(=O)N[C@@H](CC(N)=O)C(=O)N[C@H](C(=O)N[C@@H](Cc1ccc(O)cc1)C(N)=O)[C@@H](C)O)C(C)C)[C@@H](C)O [Peptide 149] (H-K([γGlu-C18 diacid])CNTATCATQRLANFL[Aib]HSSNNFGPILPPTNVGSNTY-NH2; disulfide 2-7; N-terminus assumed) | 31 % vehicle treated intake | 31.8 % vehicle treated intake | 17.5 % vehicle treated intake | 
 |  |  |  |  |  |  | amylin (KCNTATCATQRLANFLVHSSNNFGAILSSTNVGSNTY; not fully specified (C-terminus, bridges); cysteine pairing not given here; UniProt P10997 34-70, looked up) [native amylin, of which pramlintide is a synthetic analogue with three proline substitutions] |  |  |  | around 13 minutes
